For series [1], the system named is present invention protein (A22). Nature of the series: Metabolism of compounds by the present invention protein (A22), reaction solution, HPLC. Type of series: in vitro ADME, Streptomyces pallidus IFO 13434T. As to conditions: 12.5 ppm of compound, components A, B, C, 20 μl supernatant fraction of Example 61(2), 30° C. for 10 minutes.
The test system of series [2] is present invention protein (A15). Nature of the series: Detection of the ability to convert compound (II) to compound (III), E. coli pKSN1555AF extract. Conditions: 3 ppm of compound (II) labeled with 14C, components A, B, 10 minutes at 30° C. The format is in vitro ADME, Streptomyces olivochromogenes IFO 12444. On the procedure:
(§1) Reaction solutions of 30 μl were prepared and maintained for 10 minutes at 30° C. The reaction solutions consisted of a 0.1M potassium phosphate buffer (pH7.0) containing 3 ppm of compound (II) labeled with ^14C, 2 mM of β-NADPH (hereinafter, referred to as “component A”) (Oriental Yeast Company), 2 mg/ml of a ferredoxin derived from spinach (hereinafter referred to as “component B”) (Sigma Company), 0.1 U/ml of ferredoxin reductase (hereinafter, referred to as “component C”) (Sigma Company) and 23 μl of the supernatant fraction recovered in Example 32(2). Similarly to Example 4(3), the reaction solutions after the maintenance were extracted with ethyl acetate and the extracted layers were TLC analyzed. […] A spot corresponding to compound (III) was detected from the reaction solution containing E. coli pKSN849AF extract. In contrast, such a spot was not detected from the reaction solution containing E. coli pKSN2 extract.
Reaction solutions of 30 μl were prepared and maintained for 10 minutes at 30° C. […] The reaction solutions after the maintenance were extracted with ethyl acetate and the extracted layers were TLC analyzed. […] A spot corresponding to compound (III) was detected from the reaction solution containing E. coli pKSN1555AF extract. In contrast, such a spot was not detected from the reaction solution containing E. coli pKSN2 extract.

In series [3] the test system is present invention protein (A12). Nature of the series: Detection of the ability to convert compound (II) to compound (III), E. coli pKSN1618F extract. Type of series: in vitro ADME, Streptomyces tsusimaensis IFO 13782. Conditions: 3 ppm of compound (II) labeled with 14C, components A, B, 10 minutes at 30° C. The method, then: as §1
Reaction solutions of 30 μl were prepared and maintained for 10 minutes at 30° C. […] The reaction solutions after the maintenance were extracted with ethyl acetate and the extracted layers were TLC analyzed. […] A spot corresponding to compound (III) was detected from the reaction solution containing E. coli pKSN1618F extract. In contrast, such a spot was not detected from the reaction solution containing E. coli pKSN2 extract.

For series [4], the system named is present invention protein (A23). Nature of the series: Detection of the ability to convert compound (II) to compound (III), E. coli pKSN1584F extract. As to conditions: 3 ppm of compound (II) labeled with 14C, components A, B, 10 minutes at 30° C. Type of series: in vitro ADME, Streptomyces roseorubens IFO 13682T. On the procedure: as §1
Similarly to Example 32(3), reaction solutions of 30 μl were prepared and maintained for 10 minutes at 30° C. […] The reaction solutions after the maintenance were extracted with ethyl acetate and the extracted layers were TLC analyzed. […] A spot corresponding to compound (III) was detected from the reaction solution containing E. coli pKSN1584F extract. In contrast, such a spot was not detected from the reaction solution containing E. coli pKSN2 extract.

Series [5] relates to present invention protein (A22). Nature of the series: Detection of the ability to convert compound (II) to compound (III), E. coli pKSN1558BF extract. The format is in vitro ADME, Streptomyces pallidus IFO 13434T. Conditions: 3 ppm of compound (II) labeled with 14C, components A, B, 10 minutes at 30° C. The method, then:
as §1
Similarly to Example 32(3), reaction solutions of 30 μl were prepared and maintained for 10 minutes at 30° C. […] The reaction solutions after the maintenance were extracted with ethyl acetate and the extracted layers were TLC analyzed. […] A spot corresponding to compound (III) was detected from the reaction solution containing E. coli pKSN1558BF extract. In contrast, such a spot was not detected from the reaction solution containing E. coli pKSN2 extract.

For series [6], the system named is present invention protein (A18). Nature of the series: Detection of the ability to convert compound (II) to compound (III), E. coli pKSN646BF extract. Type of series: in vitro ADME, Streptomyces achromogenes IFO 12735. As to conditions: 3 ppm of compound (II) labeled with 14C, components A, B, 10 minutes at 30° C. The method, then: as §1
Similarly to Example 32(3), reaction solutions of 30 μl were prepared and maintained for 10 minutes at 30° C. […] The reaction solutions after the maintenance were extracted with ethyl acetate and the extracted layers were TLC analyzed. […] A spot corresponding to compound (III) was detected from the reaction solution containing E. coli pKSN646BF extract. In contrast, such a spot was not detected from the reaction solution containing E. coli pKSN2 extract.

Series [7] relates to present invention protein (A20). Nature of the series: Detection of the ability to convert compound (II) to compound (III), E. coli pKSN1525F extract. Type of series: in vitro ADME, Streptomyces lanatus IFO 12787T. Conditions: 3 ppm of compound (II) labeled with 14C, components A, B, 10 minutes at 30° C. The method, then: as §1
Similarly to Example 32(3), reaction solutions of 30 μl were prepared and maintained for 10 minutes at 30° C. […] The reaction solutions after the maintenance were extracted with ethyl acetate and the extracted layers were TLC analyzed. […] A spot corresponding to compound (III) was detected from the reaction solution containing E. coli pKSN1525F extract. In contrast, such a spot was not detected from the reaction solution containing E. coli pKSN2 extract.

Take `Cn1c(C(F)(F)F)cc(=O)n(-c2cc(Oc3cccnc3OCC(=O)O)c(Cl)cc2F)c1=O` [compound (XII)]: the “concentration of the compound detected from metabolism solution (A22) compared to control solution (A22)” value in series [1] is reported as “lower”.

In the case of `C[C@@H](Oc1cc(-n2c(=O)cc(C(F)(F)F)n(C)c2=O)c(F)cc1Cl)C(=O)O` [compound (II)], the “spot corresponding to compound (III) labeled with 14C (TLC)” value in series [2], in series [3], in series [4], in series [5], in series [6] and in series [7] was “detected” in each case.

(Values after patent US8293979B2, “Weed controller metabolism proteins, genes, thereof and use of the same” (Sumitomo Chemical Company, Limited, priority 2001, dated 2012).)
